Target: Guanine nucleotide-binding protein G(o) subunit alpha (Homo sapiens, UniProt P09471)
Assay: RGS7-Galphao interaction regulators, SAR follow-up, multiplexed assay, additional SAR round (AID 2826)

Sequence of Guanine nucleotide-binding protein G(o) subunit alpha (P09471 whole entry): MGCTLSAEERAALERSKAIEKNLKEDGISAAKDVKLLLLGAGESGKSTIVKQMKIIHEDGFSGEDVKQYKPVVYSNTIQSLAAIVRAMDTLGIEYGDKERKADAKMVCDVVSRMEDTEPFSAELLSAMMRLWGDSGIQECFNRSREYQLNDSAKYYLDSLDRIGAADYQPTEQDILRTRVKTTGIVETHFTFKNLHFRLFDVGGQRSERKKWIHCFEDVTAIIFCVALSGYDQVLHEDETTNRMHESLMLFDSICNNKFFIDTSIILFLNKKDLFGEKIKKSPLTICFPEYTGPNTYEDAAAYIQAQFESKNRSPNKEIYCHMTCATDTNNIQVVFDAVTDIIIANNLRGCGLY

EC50 | Compound
> 30 µM | O=C(c1sc2cc([N+](=O)[O-])ccc2c1Cl)N1CCNCC1
> 30 µM | O=C(NCCCN1CCOCC1)c1sc2cc([N+](=O)[O-])ccc2c1Cl [3-chloranyl-N-(3-morpholin-4-ylpropyl)-6-nitro-1-benzothiophene-2-carboxamide]
> 30 µM | O=C(NCCCn1ccnc1)c1sc2cc([N+](=O)[O-])ccc2c1Cl [3-chloro-N-[3-(1-imidazolyl)propyl]-6-nitro-1-benzothiophene-2-carboxamide]
> 30 µM | NC(=O)c1sc2cc([N+](=O)[O-])ccc2c1Cl [KSC-1-100]
> 30 µM | Cc1ccc2c(Cl)c(C(=O)NCCCN3CCOCC3)sc2c1 [KUC103874N]
